The source made the active and inactive calls. The rule behind the calls is not given here.
Tested on: rodent carcinogenicity bioassays, tumor incidence
Assay: CCRIS carcinogenicity studies
Procedure, shortened: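 Archive of carcinogenicity, mutagenicity, tumor promotion and tumor inhibition results drawn from journals, NCI reports and other sources, expert-reviewed; covers 1985-2011 and is no longer updated.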

## COc1cccc2c1C(=O)c1c(O)c3c(c(O)c1C2=O)C[C@@](O)(C(=O)CO)C[C@@H]3O[C@H]1C[C@H](N)[C@H](O)[C@H](C)O1
Species: RAT, Strain/Sex: SPRAGUE-DAWLEY/FEMALE, Route: INTRAVENOUS, Dose: 0, 5, 10 MG/KG IN SALINE SOLUTION ONCE (STUDY DURATION: 1 YR), Dose: 0, 5, 10 MG/KG IN SALINE SOLUTION ONCE (STUDY DURATION: 1 YR), Tumor Site: Type of Lesion: MAMMARY GLAND: FIBROADENOMA, ADENOCARCINOMA
  carcinogen call: active; positive
Species: RAT, Strain/Sex: SPRAGUE-DAWLEY/MALE, Route: INTRAVENOUS, Dose: 0, 5, 10 MG/KG IN SALINE SOLUTION ONCE (STUDY DURATION: 1 YR), Dose: 0, 5, 10 MG/KG IN SALINE SOLUTION ONCE (STUDY DURATION: 1 YR), Tumor Site: Type of Lesion: MAMMARY GLAND: ADENOCARCINOMA
  carcinogen call: active; positive

## CCC(C)n1c(=O)[nH]c(C)c(Br)c1=O (stereo not given)
Species: Mouse, Strain/Sex: CD-1/Female (80/sex/dose), Route: Oral, Dose: 0, 250, 1250, 5000 ppm in diet for 18 mo, Dose: 0, 250, 1250, 5000 ppm in diet for 18 mo
  carcinogen call: inactive; negative; purity 95%
Species: Mouse, Strain/Sex: CD-1/Male (80/sex/dose), Route: Oral, Dose: 0, 250, 1250, 5000 ppm in diet for 18 mo, Dose: 0, 250, 1250, 5000 ppm in diet for 18 mo, Tumor Site: Type of Lesion: Liver: significant increase in combined hepatocellular adenomas and carcinomas at highest dose, liver lesions (neoplasti
  carcinogen call: active; positive: purity 95%
Species: Rat, Strain/Sex: Crl:CD (BR)/Female (62/sex/group), Route: Oral, Dose: 0, 50, 250, 2500 ppm in diet for 2 yr, Dose: 0, 50, 250, 2500 ppm in diet for 2 yr
  carcinogen call: inactive; negative (mtd may have been exceeded); purity: 95-99%
Species: Rat, Strain/Sex: Crl:CD (BR)/Male (62/sex/group), Route: Oral, Dose: 0, 50, 250, 2500 ppm in diet for 2 yr, Dose: 0, 50, 250, 2500 ppm in diet for 2 yr
  carcinogen call: inactive; negative (mtd may have been exceeded); purity: 95-99%

## ClC(Cl)C(Cl)Cl
Species: MOUSE, Strain/Sex: B6C3F1/FEMALE, Route: GAVAGE, Dose: 0, 142, 282 MG/KG N CORN OIL 5 D/WK FOR 78 WK (STUDY DURATION: 90 WK), Dose: 0, 142, 282 MG/KG N CORN OIL 5 D/WK FOR 78 WK (STUDY DURATION: 90 WK), Tumor Site: Type of Lesion: LIVER: HEPATOCELLULAR CARCINOMA
  carcinogen call: active; positive
Species: MOUSE, Strain/Sex: B6C3F1/MALE, Route: GAVAGE, Dose: 0, 142, 282 MG/KG IN CORN OIL 5 D/WK FOR 78 WK (STUDY DURATION: 90 WK), Dose: 0, 142, 282 MG/KG IN CORN OIL 5 D/WK FOR 78 WK (STUDY DURATION: 90 WK), Tumor Site: Type of Lesion: LIVER: HEPATOCELLULAR CARCINOMA
  carcinogen call: active; positive
Species: RAT, Strain/Sex: OSBORNE-MENDEL/FEMALE, Route: GAVAGE, Dose: 0, 43, 76 MG/KG IN CORN OIL 5 D/WK FOR 78 WK (STUDY DURATION: 110 WK), Dose: 0, 43, 76 MG/KG IN CORN OIL 5 D/WK FOR 78 WK (STUDY DURATION: 110 WK)
  carcinogen call: inactive; negative
Species: RAT, Strain/Sex: OSBORNE-MENDEL/MALE, Route: GAVAGE, Dose: 0, 62, 108 MG/KG IN CORN OIL 5 D/WK FOR 78 WK (STUDY DURATION: 110 WK), Dose: 0, 62, 108 MG/KG IN CORN OIL 5 D/WK FOR 78 WK (STUDY DURATION: 110 WK), Tumor Site: Type of Lesion: LIVER: NEOPLASTIC NODULE, HEPATOCELLULAR CARCINOMA
  carcinogen call: equivocal

## FC(F)(F)C(Cl)Cl
Species: RAT, Strain/Sex: CRL:CDBR/FEMALE, Route: INHALATION, Dose: 0, 300, 1000, 5000 PPM 6 HR/D 5 D/WK FOR 2 YR (STUDY DURATION: 2 YR), Dose: 0, 300, 1000, 5000 PPM 6 HR/D 5 D/WK FOR 2 YR (STUDY DURATION: 2 YR), Tumor Site: Type of Lesion: LIVER: ADENOMA, CHOLANGIOFIBROMA
  carcinogen call: active; positive
Species: RAT, Strain/Sex: CRL:CDBR/MALE, Route: INHALATION, Dose: 0, 300, 1000, 5000 PPM 6 HR/D 5 D/WK FOR 2 YR (STUDY DURATION: 2 YR), Dose: 0, 300, 1000, 5000 PPM 6 HR/D 5 D/WK FOR 2 YR (STUDY DURATION: 2 YR), Tumor Site: Type of Lesion: LIVER: ADENOMA, PANCREAS: ADENOMA, TESTES: ADENOMA, Tumor Site: Type of Lesion: LIVER: ADENOMA, PANCREAS: ADENOMA, TESTES: ADENOMA
  carcinogen call: active; positive

## CCOCn1c(-c2ccc(Cl)cc2)c(C#N)c(Br)c1C(F)(F)F
Species: Mouse, Strain/Sex: CD-1/Female (65/group), Route: Oral, Dose: 0, 20, 120, 240 ppm in diet for 80 wk, Dose: 0, 20, 120, 240 ppm in diet for 80 wk
  carcinogen call: inactive; negative (study details not given in source; purity 94.5%)
Species: Mouse, Strain/Sex: CD-1/Male (65/group), Route: Oral, Dose: 0, 20, 120, 240 ppm in diet for 80 wk, Dose: 0, 20, 120, 240 ppm in diet for 80 wk
  carcinogen call: inactive; negative (study details not given in source; purity 94.5%)
Species: Rat, Strain/Sex: Sprague-Dawley/Female (65/group), Route: Oral, Dose: 0, 60, 300, 600 ppm in diet for up to 104 wk, Dose: 0, 60, 300, 600 ppm in diet for up to 104 wk
  carcinogen call: inactive; negative (study details not given in source; purity 94.5%)
Species: Rat, Strain/Sex: Sprague-Dawley/Male (65/group), Route: Oral, Dose: 0, 60, 300, 600 ppm in diet for up to 104 wk, Dose: 0, 60, 300, 600 ppm in diet for up to 104 wk
  carcinogen call: inactive; negative (study details not given in source; purity 94.5%)

## O=CCCl
Species: MOUSE, Strain/Sex: B6C3F1/MALE, Route: ORAL, Dose: 0, 0.1 G/L DISTILLED DRINKING WATER FOR STUDY DURATION (17 MG/KG/D) (STUDY DURATION: 104 WK), Tumor Site: Type of Lesion: LIVER: HEPATOCELLULAR CARCINOMA, HEPATOCELLULAR ADENOMA
  carcinogen call: active; positive

## Nc1nnc(-c2ccc([N+](=O)[O-])o2)s1
Species: RAT, Route: ORAL, Tumor Site: Type of Lesion: MAMMARY GLAND
  carcinogen call: active; positive

## c1ccc2cc3c(ccc4ccccc43)cc2c1
Species: MOUSE, Route: DERMAL, Tumor Site: Type of Lesion: INTEGUMENTARY SYSTEM (SKIN)
  carcinogen call: active; positive
Species: MOUSE, Route: IMPLANT, Tumor Site: Type of Lesion: URINARY BLADDER
  carcinogen call: active; positive
Species: MOUSE, Route: ORAL, Tumor Site: Type of Lesion: LIVER, LUNG
  carcinogen call: active; positive
Species: MOUSE, Route: SUBCUTANEOUS, Tumor Site: Type of Lesion: INJECTION SITE
  carcinogen call: active; positive
Species: MOUSE, Strain/Sex: B6C3F1/MALE, Route: INTRAPERITONEAL, Dose: 0, 1600 NMOL IN 35 µL DMSO TOTAL DOSE AT 1 D (1/7 TOTAL DOSE), 8 D (2/7 TOTAL DOSE), AND 15 D (4/7 TOTAL DOSE) OF AGE (S, Tumor Site: Type of Lesion: LIVER: ADENOMA, CARCINOMA
  carcinogen call: active; positive
Species: MOUSE, Strain/Sex: SWISS/MALE,FEMALE, Route: INTRAPERITONEAL, Dose: 0, 2800 NMOL TOTAL DOSE, D 1, 8, AND 15 OF LIFE, Dose: 0, 2800 NMOL TOTAL DOSE, D 1, 8, AND 15 OF LIFE, Tumor Site: Type of Lesion: LUNG: ADENOMA, MALIGNANT LYMPHOMA
  carcinogen call: active; positive

## O[C@@H]1c2ccccc2-c2nc3ccccc3cc2[C@H]1O
Species: MOUSE, Strain/Sex: SWISS/FEMALE, Route: INTRAPERITONEAL, Dose: 0, 1.05 UMOL GIVEN AS 150 NMOL IN 5 µL DMSO WITHIN 24 HR OF BIRTH, 300 NMOL IN 10 µL DMSO ON D 8 OF LIFE, AND 600 NMOL I
  carcinogen call: inactive; negative
Species: MOUSE, Strain/Sex: SWISS/MALE, Route: INTRAPERITONEAL, Dose: 0, 1.05 UMOL GIVEN AS 150 NMOL IN 5 µL DMSO WITHIN 24 HR OF BIRTH, 300 NMOL IN 10 µL DMSO ON D 8 OF LIFE, AND 600 NMOL I
  carcinogen call: inactive; negative

## S=C(NC1CCCCC1)NC1CCCCC1
Species: MOUSE, Strain/Sex: B6C3F1/FEMALE, Route: ORAL, Dose: 0, 25000, 50000 PPM IN DIET, Dose: 0, 25000, 50000 PPM IN DIET
  carcinogen call: inactive; negative
Species: MOUSE, Strain/Sex: B6C3F1/MALE, Route: ORAL, Dose: 0, 25000, 50000 PPM IN DIET, Dose: 0, 25000, 50000 PPM IN DIET
  carcinogen call: inactive; negative
Species: RAT, Strain/Sex: F344/FEMALE, Route: ORAL, Dose: 0, 25000, 50000 PPM IN DIET, Dose: 0, 25000, 50000 PPM IN DIET
  carcinogen call: inactive; negative
Species: RAT, Strain/Sex: F344/MALE, Route: ORAL, Dose: 0, 25000, 50000 PPM IN DIET, Dose: 0, 25000, 50000 PPM IN DIET
  carcinogen call: inactive; negative

Reference: PubChem BioAssay AID1259411 (Chemical Carcinogenesis Research Information System (CCRIS), 2018)
